Values quoted from earlier work, collected in patent publication US10059967B2, “Microorganisms and processes for producing terephthalic acid and its salts” (Genomatica, Inc., priority 2012, dated 2018).

For `Cc1ccc(C(=O)O)cc1` [p-toluate, 4-methylbenzoate], the “solubility in aqueous solution (in words)” value is listed as “Only slightly soluble”.
